{"source": "patent US20240277705A1", "about": "“DOSAGE REGIMENS FOR ECUBECTEDIN” (PHARMA MAR S.A., priority 2021, published 2024)", "key": {"WM-266-4 (Melanoma)": {"tested_on": "WM-266-4 (Melanoma)", "assay": "MTT cell viability assay, WM-266-4", "format": "cell-based", "details": "Homo sapiens", "method": "Cell viability assay: To assess the antiproliferative activity of the compounds a colorimetric assay based on 3-(4,5-Dimethylthiazol-2-yl)-2,5-diphenyltetrazolium bromide (MTT) reduction was used. […] An appropriate number of cells, to reach a final cell density in the assay ranging from 5,000 to 15,000 cells per well depending on the cell line, were seeded in 96-well plates and allowed to stand in culture medium for 24 h at 37° C. under 5% CO2 and 98% humidity. Then, compounds or DMSO in culture medium were added to reach a final volume of […] and the intended compound concentration in a range covering 10 serial 2/5 dilutions starting from […] (10 μg/mL for doxorubicin) in 1% (v/v) DMSO. At this point a set of “time zero control plates” treated with 1% (v/v) DMSO were processed with MTT as described below. The rest of the plates were incubated during 72 h under the aforementioned environmental conditions. […] Culture medium was then removed and 100 μL of neat DMSO added to each well to dissolve the formazan product into a coloured solution whose absorbance at 540 nm was finally measured in a PolarStar Omega microplate multilabel reader (BMG Labtech, Ortenberg, Germany). […]\nGI50 values were determined as described in Example 1, but using the following human cancer cell line: • WM-266-4 (ATCC@ CRL-1676) (Melanoma) […]"}, "[1]": {"assay": "Phase I dose-escalating study, pharmacokinetics", "format": "in vivo", "source_text": "Open-label, dose-escalating, phase I trial of PM14 administered as a 3-hour infusion i.v. every 3 weeks (q3wk) in human patients (pts) with advanced solid tumors, adequate organ function and ECOG PS score of 0-1. Two schedules were explored: Schedule A (Day 1 [D1], Day 8 [D8]) and Schedule B (D1).\nSecondary Endpoints • Safety: patients will be evaluable for safety if they have received at least one partial infusion of PM14. AEs will be graded according to the NCI-CTCAE v.4. Additionally, treatment-related discontinuations and treatment compliance (dose reduction, skipped doses and/or treatment delays due to AEs), will be described. • Pharmacokinetics: PK analyses will be evaluated in plasma and urine by standard non-compartmental analysis (compartmental modeling may be performed if appropriate). Plasma samples for PM14 PK analysis will be obtained in Cycle 1 from all patients, and also in Cycle 2 from patients treated during Step D of the CRM. In addition, the urine produced during Day 1 of Cycle 1 and Cycle 2 will be collected from patients treated during Step D of the CRM. • Pharmacogenetics: the presence or absence of PGt polymorphisms in genes relevant for PM14 disposition (distribution, metabolism and excretion) from a single blood sample collected at any time during the trial (but preferably at the same time as the pre-treatment PK sample on Day 1 of Cycle 1) will be assessed to explain individual variability in main PK parameters. • Pharmacogenomics: this exploratory analysis will be performed in those patients who sign the Informed Consent Form (ICF) for the PGx study. mRNA or protein expression levels of factors involved in DNA repair mechanisms, or related to the mechanism of action of PM14, will be evaluated from available tumor tissue samples obtained at diagnosis or relapse and in cell-free ctDNA. Their mutational status might also be analyzed, if relevant. Their correlation with the clinical response and outcome after treatment will be assessed. • Efficacy: patients will be evaluable for efficacy if they receive at least one complete infusion of PM14 and have at least one clinical or radiological tumor assessment as per RECIST v.1.1 or serum markers, or if they are considered to have failed treatment. Treatment failure will be defined as clinical deterioration, death due to PD or treatment discontinuation due to any treatment-related toxicity before any appropriate tumor assessments have been performed."}, "[2]": {"tested_on": "Caki-1 (kidney clear cell carcinoma)", "assay": "MTT cell viability assay, Caki-1", "format": "cell-based", "details": "Homo sapiens, CAKI-1, 72 h; read-out: GI50, M (geometric mean, N = 3)", "source_text": "Cell lines and cell culture: The following human cancer cell lines have been used in this example (the collection code and the tissue of origin are shown in brackets): • RXF 393 (NCI) (renal carcinoma) • Caki-1 (ATCC HTB-46) (kidney clear cell carcinoma)\nCell lines were obtained from the American Type Culture Collection (ATCC) or the National Cancer Institute (NCI). Cells were maintained in the appropriate culture medium, namely: • RPMI for RXF 393 • McCoy's 5A for Caki-1\nAll media were supplemented with 10% FBS, 2 mM L-Glutamine and 100 units/mL of penicillin-streptomycin.\nCell viability assay: To assess the antiproliferative activity of the compounds a colorimetric assay based on 3-(4,5-Dimethylthiazol-2-yl)-2,5-diphenyltetrazolium bromide (MTT) reduction was used. […] Culture medium was then removed and 100 μL of neat DMSO added to each well to dissolve the formazan product into a coloured solution whose absorbance at 540 nm was finally measured in a PolarStar Omega microplate multilabel reader (BMG Labtech, Ortenberg, Germany). […]\nGI50 is finally used as reference value. […] To define a significant (ca. 70%) confidence interval for the geometric mean, its value must be multiplied and divided by the corresponding geometric standard deviation (GSD) which was also calculated. […]"}}}
{"smiles": "COc1c(C)cc2c(c1O)[C@@H]1[C@@H]3[C@@H]4SC[C@]5(N[C@H](CO)Cc6c5[nH]c5ccccc65)C(=O)OC[C@@H](c5c6c(c(C)c(OC(C)=O)c54)OCO6)N3[C@@H](O)[C@H](C2)N1C", "note": "[PM14, ECUBECTEDIN]", "values": [{"measurement": "GI50", "setting": "WM-266-4 (Melanoma)", "result": 1.94, "unit": "nM"}, {"measurement": "Vd", "setting": "[1]; human, in vivo", "result": 128, "unit": "L"}, {"measurement": "clearance", "setting": "[1]; human, in vivo", "result": 98.3, "unit": "mL/min"}, {"measurement": "half-life", "setting": "[1]; human, in vivo, half-life", "result": 16, "unit": "h"}, {"measurement": "half-life", "setting": "[1]; human, in vivo, terminal half-life, median (range)", "result": 15.9, "unit": "h"}, {"measurement": "administered dose recovered in urine", "setting": "[1]; patients", "result": "Less than 1.6%"}, {"measurement": "distribution into peripheral tissues", "setting": "[1]; patients", "result": "moderate"}, {"measurement": "hepatic extraction ratio", "setting": "[1]; patients", "result": "low"}, {"measurement": "pharmacokinetics, dose linearity", "setting": "[1]; tested doses 0.25-5.6 mg/rn^2", "result": "Linear pharmacokinetics"}, {"measurement": "GI50", "setting": "[2]", "result": 0.611, "unit": "nM"}]}
